Assay results from patent publication US20260107941A1.
≈ marks a conversion by molar mass, not a printed value. Where “and” joins values, the source holds several entries; their conditions need not be identical. Equal values may be shown once.

How the values were obtained:
Acidovorax citrulli = assay: Turbidity method, toxicity to Acidovorax citrulli; assay type: cell-based; conditions: Paracidovorax citrulli; A. citrulli; turbidity in NB medium, shaking culture 30° C., 2 d to 3 d
pear fire blight = assay: Field test, control effect on pear fire blight in fragrant pear orchards; conditions: 3 L sprayed per pear tree, 3 times at 7 d/time
Cladosporium fulvum = assay: Mycelial growth rate method, toxicity to Cladosporium fulvum; assay type: cell-based; conditions: Fulvia fulva; C. fulvum; mycelial growth on drug-containing PDA plate, 28° C., 3 d to 7 d
Procedure: (§1) A PDA solid medium was heated, melted, shaken, and cooled to about 45° C.; a medicinal solution (filtered with a 0.22 μm sterile filter) and the PDA solid medium were mixed, cooled to obtain a drug-containing medium plate with a certain concentration; a phytopathogen cake was placed in the center of the plate, and cultured at 28° C. for 3 d to 7 d; when the hyphae of the phytopathogen in the control group were about to fill the dish, a colony diameter was measured using a cross method, and the mycelial growth inhibition rate and toxicity were calculated. [formula]

Rhizoctonia solani [1] = assay: Mycelial growth rate method, toxicity to Rhizoctonia solani; assay type: cell-based; conditions: R. solani, mycelial growth on drug-containing PDA plate, 28° C., 3 d to 7 d
Procedure: as §1

Erwinia amylovory = assay: Turbidity method, toxicity to Erwinia amylovory; assay type: cell-based; conditions: E. amylovory, turbidity in NB medium, shaking culture 30° C., 2 d to 3 d
Alternaria alternata = assay: Mycelial growth rate method, toxicity to Alternaria alternata; assay type: cell-based; conditions: A. alternata, mycelial growth on drug-containing PDA plate, 28° C., 3 d to 7 d
Procedure: as §1

Fusarium oxysporum = assay: Mycelial growth rate method, toxicity to Fusarium oxysporum; assay type: cell-based; conditions: F. oxysporum, mycelial growth on drug-containing PDA plate, 28° C., 3 d to 7 d
Procedure: as §1

Rhizoctonia solani [2] = assay: Pot method, control effect on Rhizoctonia solani in cotton seedlings; assay type: in vivo; conditions: 50 mL applied on 1 d, 3 d, 5 d, 7 d, after 10 d
Procedure: A Rhizoctonia solani suspension (10^7 CFU/mL) was added to a matrix at a ratio of 20:1 (w/w), mixed well, germinated cotton seeds were sown into the matrix, and then 50 mL of the medicinal solution was applied on 1 d, 3 d, 5 d, and 7 d separately. After culturing for 10 d, the incidence rate was investigated and the control effect was calculated.

[3] = test system: Pseudomonas syringae pv. lachrymans; assay: microbe, parasite or virus in culture; assay type: cell-based; conditions: P. syringae pv. lachrymans
[4] = test system: Colletotrichum orbiculare; assay: Mycelial growth rate method, toxicity to Colletotrichum orbiculare; assay type: cell-based; conditions: C. orbiculare, mycelial growth on drug-containing PDA plate, 28° C., 3 d to 7 d
Procedure: as §1

Xanthomonas oryzae = assay: microbe, parasite or virus in culture; assay type: cell-based

Q: How did the EC50 (Acidovorax citrulli) turn out when `CCN(CC)c1ccc(C=O)c(O)c1` was run?
A: Its EC50 is 108 µg/mL (≈ 561 µM).

Q: What about the “Control effect (%) 7 d after last dose” value (pear fire blight; 200 mg/L) of the same molecule?
A: The value was 40.85c %.

Q: What about the “Control effect (%) 14 d after last dose” value (pear fire blight; 200 mg/L) of the same molecule?
A: Its value is 35.14c %.

Q: What about the “Control effect (%) 7 d after last dose” value (pear fire blight; 300 mg/L) of the same molecule?
A: Its value is 50.37% and 50.37b %.

Q: What about the “Control effect (%) 14 d after last dose” value (pear fire blight; 300 mg/L) of the same molecule?
A: Its value is 44.71% and 44.71b %.

Q: And the “Control effect (%) 7 d after last dose” value (pear fire blight; 400 mg/L)?
A: The value was 58.13% and 58.13a %.

Q: And the “Control effect (%) 14 d after last dose” value (pear fire blight; 400 mg/L)?
A: Its value is 50.81% and 50.81a %.

Q: And the EC50 (Cladosporium fulvum)?
A: Its EC50 is 113 µg/mL (≈ 583 µM).

Q: And the EC50 (Rhizoctonia solani [1])?
A: The EC50 was 14.5 µg/mL (≈ 75 µM).

Q: What about the EC50 (Erwinia amylovory) of the same molecule?
A: The EC50 was 92.1 µg/mL (≈ 477 µM).

Q: And the EC50 (Alternaria alternata)?
A: The EC50 was 200 µg/mL (≈ 1040 µM).

Q: And the EC50 (Fusarium oxysporum)?
A: The EC50 was 40.8 µg/mL (≈ 211 µM).

Q: And the “Control effect (%)” value (Rhizoctonia solani [2]; 50 mg/L)?
A: Its value is 60.66% and 60.66c %.

Q: And the “Incidence (%)” value (Rhizoctonia solani [2]; 50 mg/L)?
A: Its value is 20.00%.

Q: What about the “Control effect (%)” value (Rhizoctonia solani [2]; 100 mg/L) of the same molecule?
A: Its value is 77.05% and 77.05b %.

Q: What about the “Incidence (%)” value (Rhizoctonia solani [2]; 100 mg/L) of the same molecule?
A: Its value is 11.67%.

Q: And the “Control effect (%)” value (Rhizoctonia solani [2]; 150 mg/L)?
A: Its value is 86.89% and 86.89a %.

Q: What about the “Incidence (%)” value (Rhizoctonia solani [2]; 150 mg/L) of the same molecule?
A: The value was 6.67%.

Q: What about the EC50 [3] of the same molecule?
A: The EC50 was 114 µg/mL (≈ 592 µM).

Q: What about the EC50 [4] of the same molecule?
A: The EC50 was 93.8 µg/mL (≈ 485 µM).

Q: And the EC50 (Xanthomonas oryzae)?
A: The EC50 was 136 µg/mL (≈ 706 µM).

Q: What does the source list for `COC(=O)Nc1nc2ccccc2[nH]1` [carbendazim, reference compound]?
A: Control effect (%) (Rhizoctonia solani [2]; 100 mg/L): 49.18d %; Incidence (%) (Rhizoctonia solani [2]; 100 mg/L): 25.83%

Q: zhongshengmycin [reference compound] was tested. Which “Control effect (%) 7 d after last dose” value (pear fire blight; 50 mg/L) did it give?
A: Its value is 53.06ab %.

Q: What about the “Control effect (%) 14 d after last dose” value (pear fire blight; 50 mg/L) of the same molecule?
A: Its value is 47.36b %.
